This is an account of results in patent publication US9499485B2, “Compounds that are S1P modulating agents and/or ATX modulating agents” (BIOGEN MA INC., priority 2012, dated 2016).

SMILES strings stand for the structures. Read-outs that look alike come from different tables or passages of the source.

For this experiment, the target named is T1, Human ATX protein (Homo sapiens, UniProt Q13822).
T1 construct: made in house
Put plainly: ATX biochemical FRET assay with FS-3 substrate. Conditions: FS-3 2 μM, ATX 1.0 μg/mL. An excerpt:
ATX (Autotaxin) is a 125 KDa glycoprotein with lysophospholipase D (LPLD) activity that generates the bioactive lipid lysophosphatidic acid (LPA) from lysophosphatidylcholine (LPC). The ATX biochemical assay utilizes a FRET (fluorescence resonance energy transfer) technology platform. The fluorescence signal of FRET substrate FS-3 is quenched due to intra-molecular FRET of a fluorophore to a non-fluorescing quencher (Ferguson, C. G., et al., Org. Lett. 2006 May 11; 8(10): 2023-2026, which is incorporated by reference in its entirety). ATX catalyzes the hydrolysis of the substrate which separates the dabsyl quencher from the fluorescein reporter, which becomes fluorescent. The reaction is monitored by a SpectraMax M5 (Molecular Devices, Sunnyvale, Calif.) with at excitation wavelength 485 nm and emission wavelength 535 nm.
2×ATX assay buffer: 100 mM Tris, 280 mM NaCl, 10 mM KCl, 2 mM CaCl2, 2 mM MgCl2, pH 7.4.
Human ATX protein: expressed and purified in house. Stored at −80° C.
Substrate FS-3 (Echelon, L-2000): 100 μg in 77.74 μL H2O (1 mM stock), stored at −20° C.
Compound dilution—All compounds were provided at 10 mM in 100% DMSO. In the first well, 2 μL of 10 mM compound was added to 78 μL of DMSO (1:40 dilution). In subsequent wells 3-fold dilution (total 10 dilutions) were performed.
1×ATX assay buffer was made up with a final concentration of 1 mg/mL fatty acid free-BSA using 2×ATX assay buffer, 10 mg/ml fatty acid free-BSA and ddH2O.
ATX protein was diluted with 1×ATX assay buffer to a concentration of 1.32 μg/mL (1.32×). 38 μL was added per well to the assay plate. The final concentration of ATX in the reaction as 1.0 μg/mL.
2 μL per well of compounds was transferred to provide the desired concentration. The plate was centrifuged, then incubated at room temperature for 30 minutes on the shaker.
FS-3 was diluted with 1×ATX assay buffer to a concentration of FS-3 of 10 μM (5×). Then, 10 μL was added per well to the assay plate. The final concentration of FS-3 in the reaction was 2 μM. The plate was centrifuged. The plate was kept shaking at room temperature for 2 hours. Because FS-3 substrate is light sensitive, plates were kept covered and protected from light.
Fluorescence was measured using SpectraMax M5 (excitation at 485 nm/emission at 538 nm, top read).

The mark [1] stands for this setting: binned table, read-out: IC50 (μm).

`C[C@H]1CC[C@@H](Oc2ccc3c(CN4CCC(C(=O)O)CC4)cccc3c2C(F)(F)F)CC1` [Example 1, 1-((6-((cis-4-methylcyclohexyl)oxy)-5-(trifluoromethyl)naphthalen-1-yl)methyl)piperidine-4-carboxylic acid]: the IC50 under setting [1] lay within 500 to 5000 nM. Still for that read-out and setting: under `C[C@H]1CC[C@@H](Oc2ccc3c(CN4C5CCC4CC(C(=O)O)C5)cccc3c2C(F)(F)F)CC1` (stereo partly drawn) [Example 2, 8-((6-((cis-4-methylcyclohexyl)oxy)-5-(trifluoromethyl)naphthalen-1-yl)methyl)-8-azabicyclo[3.2.1]octane-3-carboxylic acid] stands 500 to 5000 nM. Still for that read-out and setting: under `C[C@H]1CC[C@@H](Oc2ccc3c(CN4C5CCCC4CC(C(=O)O)C5)cccc3c2C(F)(F)F)CC1` (stereo partly drawn) [Example 3, 9-((6-((cis-4-methylcyclohexyl)oxy)-5-(trifluoromethyl)naphthalen-1-yl)methyl)-9-azabicyclo[3.3.1]nonane-3-carboxylic acid] stands 500 to 5000 nM.

Turning to `C[C@H]1CC[C@@H](Oc2ccc3c(CN4CCC[C@H](CC(=O)O)C4)cccc3c2C(F)(F)F)CC1` [Example 4, 2-((R)-1-((6-((cis-4-methylcyclohexyl)oxy)-5-(trifluoromethyl)naphthalen-1-yl)methyl)piperidin-3-yl)acetic acid], the IC50 under setting [1] is < 500 nM and the half-maximal inhibitory concentration (IC50) (read-out: ATX IC50) is ≤ 250 nM. With `C[C@H]1CC[C@@H](Oc2ccc3c(CNC4(C(=O)O)CCCCC4)cccc3c2C(F)(F)F)CC1` [Example 5, 1-(((6-((cis-4-methylcyclohexyl)oxy)-5-(trifluoromethyl)naphthalen-1-yl)methyl)amino)cyclohexanecarboxylic acid], the IC50 under setting [1] was > 5000 nM.

`C[C@H]1CC[C@@H](Oc2ccc3c(CNCC(=O)O)cccc3c2C(F)(F)F)CC1` [Example 6, 2-(((6-((cis-4-methylcyclohexyl)oxy)-5-(trifluoromethyl)naphthalen-1-yl)methyl)amino)acetic acid]: the IC50 under setting [1] lay in the range of 500 to 5000 nM. The same measure, in the same setting: the figure for `C[C@H]1CC[C@@H](Oc2ccc3c(CNCCC(=O)O)cccc3c2C(F)(F)F)CC1` [Example 7, 3-(((6-((cis-4-methylcyclohexyl)oxy)-5-(trifluoromethyl)naphthalen-1-yl)methyl)amino)propanoic acid] is < 500 nM; for `C[C@H]1CC[C@@H](Oc2ccc3c(CNCCCC(=O)O)cccc3c2C(F)(F)F)CC1` [Example 8, 4-(((6-((cis-4-methylcyclohexyl)oxy)-5-(trifluoromethyl)naphthalen-1-yl)methyl)amino)butanoic acid] it is < 500 nM; for `C[C@H]1CC[C@@H](Oc2ccc3c(CNCCCCC(=O)O)cccc3c2C(F)(F)F)CC1` [Example 9, 5-(((6-((cis-4-methylcyclohexyl)oxy)-5-(trifluoromethyl)naphthalen-1-yl)methyl)amino)pentanoic acid] it is 500 to 5000 nM. As to `C[C@H]1CC[C@@H](Oc2ccc3c(CNCCCCCC(=O)O)cccc3c2C(F)(F)F)CC1` [Example 10, 6-(((6-((cis-4-methylcyclohexyl)oxy)-5-(trifluoromethyl)naphthalen-1-yl)methyl)amino)hexanoic acid], the IC50 is, setting by setting: under setting [1], < 500 nM; (read-out: ATX IC50) ≤ 250 nM. In the case of `O=C(O)C1CCN(Cc2cccc3c(C(F)(F)F)c(O[C@H]4CC[C@@H](C(F)(F)F)CC4)ccc23)CC1` [Example 11, 1-((5-(trifluoromethyl)-6-((cis-4-(trifluoromethyl)cyclohexyl)oxy)naphthalen-1-yl)methyl)piperidine-4-carboxylic acid], under setting [1], the IC50 was 500 to 5000 nM. On the same count and under the same terms, under `O=C(O)C1CC2CCCC(C1)N2Cc1cccc2c(C(F)(F)F)c(O[C@H]3CC[C@@H](C(F)(F)F)CC3)ccc12` (stereo partly drawn) [Example 13, 9-((5-(trifluoromethyl)-6-((cis-4-(trifluoromethyl)cyclohexyl)oxy)naphthalen-1-yl)methyl)-9-azabicyclo[3.3.1]nonane-3-carboxylic acid] stands 500 to 5000 nM.

For `O=C(O)C[C@H]1CCCN(Cc2cccc3c(C(F)(F)F)c(O[C@H]4CC[C@@H](C(F)(F)F)CC4)ccc23)C1` [Example 14, 2-((R)-1-((5-(trifluoromethyl)-6-((cis-4-(trifluoromethyl)cyclohexyl)oxy)naphthalen-1-yl)methyl)piperidin-3-yl)acetic acid], the IC50 by setting is: under setting [1], < 500 nM; (read-out: ATX IC50) ≤ 250 nM.

Regarding `O=C(O)C1(NCc2cccc3c(C(F)(F)F)c(O[C@H]4CC[C@@H](C(F)(F)F)CC4)ccc23)CCCCC1` [Example 15, 1-(((5-(trifluoromethyl)-6-((cis-4-(trifluoromethyl)cyclohexyl)oxy)naphthalen-1-yl)methyl)amino)cyclohexanecarboxylic acid], the IC50 under setting [1] was > 5000 nM.

With `O=C(O)CNCc1cccc2c(C(F)(F)F)c(O[C@H]3CC[C@@H](C(F)(F)F)CC3)ccc12` [Example 16, 2-(((5-(trifluoromethyl)-6-((cis-4-(trifluoromethyl)cyclohexyl)oxy)naphthalen-1-yl)methyl)amino)acetic acid], under setting [1], the IC50 was 500 to 5000 nM.

In the case of `O=C(O)CCNCc1cccc2c(C(F)(F)F)c(O[C@H]3CC[C@@H](C(F)(F)F)CC3)ccc12` [Example 17, 3-(((5-(trifluoromethyl)-6-((cis-4-(trifluoromethyl)cyclohexyl)oxy)naphthalen-1-yl)methyl)amino)propanoic acid], the IC50 under setting [1] was 500 to 5000 nM. Still for that read-out and setting: the figure for `O=C(O)CCCNCc1cccc2c(C(F)(F)F)c(O[C@H]3CC[C@@H](C(F)(F)F)CC3)ccc12` [Example 18, 4-(((5-(trifluoromethyl)-6-((cis-4-(trifluoromethyl)cyclohexyl)oxy)naphthalen-1-yl)methyl)amino)butanoic acid] is < 500 nM; for `O=C(O)CCCCNCc1cccc2c(C(F)(F)F)c(O[C@H]3CC[C@@H](C(F)(F)F)CC3)ccc12` [Example 19, 5-(((5-(trifluoromethyl)-6-((cis-4-(trifluoromethyl)cyclohexyl)oxy)naphthalen-1-yl)methyl)amino)pentanoic acid] it is 500 to 5000 nM.

For `O=C(O)CCCCCNCc1cccc2c(C(F)(F)F)c(O[C@H]3CC[C@@H](C(F)(F)F)CC3)ccc12` [Example 20, 6-(((5-(trifluoromethyl)-6-((cis-4-(trifluoromethyl)cyclohexyl)oxy)naphthalen-1-yl)methyl)amino)hexanoic acid], the IC50 is, setting by setting: under setting [1], < 500 nM; (read-out: ATX IC50) ≤ 250 nM. Regarding `C[C@H]1CC[C@@H](Oc2ccc3cccc(CN4CCC(C(=O)O)CC4)c3c2C(F)(F)F)CC1` [Example 21, 1-((7-((cis-4-methylcyclohexyl)oxy)-8-(trifluoromethyl)naphthalen-1-yl)methyl)piperidine-4-carboxylic acid], the IC50 under setting [1] was in the range of 500 to 5000 nM. With `C[C@H]1CC[C@@H](Oc2ccc3cccc(CN4C5CCC4CC(C(=O)O)C5)c3c2C(F)(F)F)CC1` (stereo partly drawn) [Example 22, 8-((7-((cis-4-methylcyclohexyl)oxy)-8-(trifluoromethyl)naphthalen-1-yl)methyl)-8-azabicyclo[3.2.1]octane-3-carboxylic acid], the IC50 under setting [1] was < 500 nM and the IC50 (read-out: ATX IC50) is ≤ 250 nM. For `C[C@H]1CC[C@@H](Oc2ccc3cccc(CN4C5CCCC4CC(C(=O)O)C5)c3c2C(F)(F)F)CC1` (stereo partly drawn) [Example 23, 9-((7-((cis-4-methylcyclohexyl)oxy)-8-(trifluoromethyl)naphthalen-1-yl)methyl)-9-azabicyclo[3.3.1]nonane-3-carboxylic acid], the IC50 under setting [1] fell in the range of 500 to 5000 nM. Consider `C[C@H]1CC[C@@H](Oc2ccc3cccc(CN4CCC[C@H](CC(=O)O)C4)c3c2C(F)(F)F)CC1` [Example 24, 2-((R)-1-((7-((cis-4-methylcyclohexyl)oxy)-8-(trifluoromethyl)naphthalen-1-yl)methyl)piperidin-3-yl)acetic acid], for which, under setting [1], the IC50 was 500 to 5000 nM. On the same count and under the same terms, under `O=C(O)C1CCN(Cc2cccc3ccc(O[C@H]4CC[C@@H](C(F)(F)F)CC4)c(C(F)(F)F)c23)CC1` [Example 25, 1-((8-(trifluoromethyl)-7-((cis-4-(trifluoromethyl)cyclohexyl)oxy)naphthalen-1-yl)methyl)piperidine-4-carboxylic acid] stands 500 to 5000 nM; under `O=C(O)C1CC2CCC(C1)N2Cc1cccc2ccc(O[C@H]3CC[C@@H](C(F)(F)F)CC3)c(C(F)(F)F)c12` (stereo partly drawn) [Example 26, 8-((8-(trifluoromethyl)-7-((cis-4-(trifluoromethyl)cyclohexyl)oxy)naphthalen-1-yl)methyl)-8-azabicyclo[3.2.1]octane-3-carboxylic acid], 500 to 5000 nM.
